Test results reported in patent publication US4309559A, “Sulphonamides useful as pesticides” (FBC Limited, priority 1977, dated 1982).
Like-named read-outs stand apart in the source and are kept apart here.

Experiments:
[1] = test system: rice blast Pyricularia oryzae; type: in vivo; details: soil and leaves, 7 days, controls less than 5%
[2] = test system: vine downy mildew, Plasmopara viticola; assay: Vine downy mildew control on vine plants (application to soil and leaves); type: in vivo; details: 2000 ppm, 12 days, controls less than 5%
Procedure: Aqueous acetone solutions of each of the compounds listed in the Table below, containing 2000 parts per million (ppm), together with 125 ppm of a suitable wetting agent, were applied to the soil surrounding the roots and leaves of vine plants having five fully expanded leaves.
The treated plants, together with controls treated with wetting agent alone, were inoculated 24 hours after the chemical application with an aqueous suspension of sporangia of the disease organism known as vine downy mildew, Plasmopara viticola.

[3] = test system: potato blight Phytophthora infestans; type: in vivo; details: 5 days, controls less than 5%
[4] = test system: Pythium ultimum; assay: Fungal growth on the surface of soil infected with damping-off disease organism; type: in vivo; details: 300 ppm; 6 days, 25° C.; 0-8 scale (Examples 233, 234, 268)
Procedure: (§1) A one week old maize meal/sand culture of the damping-off disease organism Pythium ultimum was thoroughly mixed by hand with clean sterile John Innes No. 1 potting compost in the ratio of 3 kg culture to 12 liters of soil. The infected soil was then left for approximately 18 hours before use. Each of the compounds listed below was ground together with a wetting agent, Tween 20 (1% of final volume), until a solution or fine suspension was produced which was then diluted with distilled water to give 160 ml of solution containing 1500, 500, 150 or 50 ppm active ingredient. 15 ml aliquots of this solution were added to 75 g portions of the soil infected with Pythium ultimum which were contained in small plastic cartons, 60 mm diameter×55 mm high. Fifteen cabbage seeds, variety Flower of Spring, were placed in a circular depression in the treated infected soil, recovered, and the whole sealed with a plastic cap. The cartons were then placed in a constant temperature room at 25° C.±1° C. Four replications per treatment were made with one additional treatment where seeds were sown in soil which was chemically treated only, i.e. there was no infection. This latter treatment was included to measure the direct effect of the chemical on the germination of the seed. After six days the cartons were removed from the controlled temperature chamber and assessed for degree of fungal growth on the soil surface and percentage of seedling emergence. The results of both these assessments are expressed in a 0-8 scale as follows:
(§2) One week old maize meal/sand culture of the damping-off disease organism Pythium ultimum was thoroughly mixed by hand with clean sterile John Innes No. 1 potting compost in the ratio of 3 kg culture to 12 liters of soil. This infected soil was then left for approximately 18 hours before use. The compounds listed in the Table below were each ground with the wetting agent Tween 20 (1% of final volume), until a solution or fine suspension was produced, which was then diluted with distilled water to give 160 ml of solution containing 1500 or 500 parts per million (ppm) active ingredient. 15 ml aliquots of this solution were added to 75 g portions of the soil infected with Pythium ultimum which were contained in small plastic cartons, 60 mm diameter×55 mm high.
(§3) Fifteen cabbage seeds, variety Flower of Spring, were placed in a circular depression in the treated infected soil, recovered, and the whole sealed with a plastic cap. The cartons were then placed in a constant temperature room at 25° C.±1° C. Four replications per treatment were made, with one additional treatment where seeds were sown in soil which was chemically treated only, i.e. there was no infection. This latter treatment was included to measure the direct effect of the chemical on the germination of the seed.
(§4) After six days, the cartons were removed from the controlled temperature chamber and assessed for degree of fungal growth on the soil surface and percentage of seedling emergence. The results of both these assessments are expressed in a 0-8 scale as follows:
(§5) N-(2-oxopropyl)-3',4'-dimethyl-methanesulphonanilide was tested at a dose rate of 300 ppm in the test described in Examples 233 and 234. It gave a mycelial control score of 0 and a germination score of 3 whereas the untreated samples gave a score of 0 for both.

[5] = test system: Pythium ultimum; assay: Cabbage seedling emergence in soil infected with Pythium ultimum; type: in vivo, Pythium ultimum (on cabbage, variety Flower of Spring); details: 300 ppm; 6 days, 25° C.; 0-8 scale (Examples 233, 234, 268)
Procedure: as §1, §2, §3, §4, §5

[6] = test system: barley powdery mildew Erysiphe graminis; assay: Barley powdery mildew control on barley plants; type: in vivo; details: 2000 ppm; soil and leaves; 10 days; controls less than 5%

## CCS(=O)(=O)N(CC(=O)C(C)(C)C)c1c(C)cccc1C [Example 212, N-2-oxo-3,3-dimethylbutyl-2',6'-dimethyl-ethanesulphonanilide]
[1]; 2000 ppm
  % Control, rice blast: 80%

## Cc1cccc(Cl)c1N(CC1(C)OCCO1)S(C)(=O)=O [Example 230, N-[(2-methyl-1,3-dioxolan-2-yl)methyl]-2'-chloro-6'-methylmethanesulphonanilide]
[2]
  % Control Vine Downing Mildew: 80%

## CON=C(C)CN(c1c(C)cccc1C)S(C)(=O)=O [Example 249]
[3]; 500 ppm
  % Control, potato blight: 74%
[1]; 500 ppm
  % Control, rice blast: 66%

## CC(=O)CN(c1ccc(C)c(C)c1)S(C)(=O)=O [Example 272, N-(2-oxopropyl)-3',4'-dimethylmethanesulphonanilide]
[4]
  Mycelial Control Score: 0 (<20% inhibition)
[5]
  Germination Score: 3 (45-54% inhibition)
[3]; 2000 ppm
  % Control, potato blight: 62%
[6]
  % Control, barley powdery mildew: 99%
[1]; 2000 ppm
  % Control, rice blast: 67%
